Experimental data reported in US20100093613A1, “METHODS FOR IDENTIFYING AGENTS AND THEIR USE FOR THE PREVENTION OR STABILIZATION OF FIBROSIS” (priority 2007, published 2010).

Columns and labels:
[1] = test system: Bronchial epithelial cells; experiment: BioMAP BE4T system (IL-4 + TNF-a), scoring of readout parameters; format: cell-based, human; parameters: key: 1 = modulated in desired direction, 0 = not (−1 = opposite); details: for PAI-1 score: desired change decrease; for EGFR score: desired no change or increase
Procedure: In the “BE4T” system, bronchial epithelial cells, usually primary human bronchial epithelial cells, are cultured in the presence of TNF-α and IL-4.
(§1) Each screened compound is scored according to its modulation of the selected readout parameters. Compounds receive a positive score (score of 1) or negative score (score of 0) for each readout parameter set forth in Table 2 that is modulated in the desired direction. […] Parameters may be penalized by making the positive score a −1 for parameters where regulation is opposite to the desired direction.
(§2) Cell culture. Human umbilical vein endothelial cells (HUVEC) were pooled from multiple donors, cultured according to standard methods, and plated into microtiter plates at passage 4. Cell culture medium for all systems containing HUVEC included hydrocortisone. Coronary artery smooth muscle cells (CASM3C) and umbilical artery smooth muscle cells (HSM3C) were cultured according to standard procedures. Peripheral blood mononuclear cells (PBMC) were prepared from buffy coats from normal human donors according to standard methods. Monocyte-derived macrophages were differentiated in the presence of M-CSF for 7 d according to standard procedures. Human dermal fibroblasts were pooled from 3 donors, cultured according to standard methods, and plated confluent 24 h before stimulation. Cell culture medium for all systems containing fibroblasts and keratinocytes contained low hydrocortisone. Epidermal keratinocytes and bronchial epithelial cells from 3 donors were cultured according to standard procedures and pooled when plated into microtiter plates. For keratinocyte-fibroblast co-cultures, cells were plated simultaneously 24 h before stimulation. For bronchial epithelial cell-fibroblast co-cultures, fibroblasts were plated and cultured 48 before addition of epithelial cells, then cultured another 24 hr before stimulation. Concentrations/amounts of agents added to confluent microtiter plates to build each system: cytokines (IL-1β, 1 ng/ml; TNF-α, 5 ng/ml; IFN-γ, 20 ng/ml; IL-4, 5 ng/ml), activators (SAg, 20 ng/ml; histamine, 10 μM; zymosan, 10 μg/ml; or LPS, 2 ng/ml), growth factors (TGF-β, 5 ng/ml; EGF, bFGF, and PDGF-BB, 10 ng/ml), and PBMC (7.5×10^4 cells/well) or macrophages (3.5×10^4 cells/well).
(§3) Compounds. Compounds were prepared in the solvent directed, added 1 hr before stimulation of the cells, and were present during the 24 hr stimulation period for the measurement of parameters listed in Table 2. For proliferation, compounds added 1 hr before stimulation of the cells with cytokines, and were present during the 48 to 72 hr assay. If prepared in DMSO, the final concentration of solvent was 0.1% or less.
(§4) Readout Parameter Measurements. The levels of readout parameters were measured by ELISA. Briefly, microtiter plates are treated, blocked, and then incubated with primary antibodies or isotype control antibodies (0.01-0.5 microg/ml) for 1 hr. After washing, plates were incubated with a peroxidase-conjugated anti-mouse IgG secondary antibody or a biotin-conjugated anti-mouse IgG antibody for 1 hr followed by streptavidin-HRP for 30 min. Plates were washed and developed with TMB substrate and the absorbance (OD) was read at 450 nm (subtracting the background absorbance at 650 nm). Quantitation of TNF-alpha or PGE2 in the LPS system was done using a commercially available kit according to the manufacturer's directions. Proliferation of endothelial cells (HUVEC and CAEC), smooth muscle cells (SMC and CASMC), and PBMC (T cells) was quantitated by Alamar Blue reduction or SRB.
(§5) Data analysis. Mean OD values for each parameter were calculated for compounds run in duplicate. The mean value (or single well OD value) for each parameter in a treated sample was then divided by the mean value from an appropriate control to generate a ratio. All ratios were then log10 transformed. 95% significance prediction envelopes (grey shading in Figures) were calculated for historical controls.

[2] = test system: Peripheral Blood Mononuclear Cells + Umbilical Vein Endothelial Cells; experiment: BioMAP LPS system (TLR4), scoring of readout parameters; format: cell-based, human; details: LPS (by position); desired change decrease
Text: as §1, §2, §3, §4, §5

[3] = test system: Bronchial epithelial cells; experiment: BioMAP BE3C system (IL-1β + TNF-α + IFN-γ), scoring of readout parameters; format: cell-based, human; details: for PAI-1 score: desired change decrease; for EGFR score: desired no change or increase
Text: as §1, §2, §3, §4, §5

Fibroblasts [4] = experiment: BioMAP HDF3CGF system (IL-1β + TNF-α + IFN-γ + EGF + bFGF + PDGFbb), scoring of readout parameters; format: cell-based, human; details: for PAI-1 score: desired change decrease; for MMP-1 score: desired change increase; for EGFR score: desired no change or increase
Procedure: In the “HDF-3CGF” system, dermal fibroblast cells, usually primary human dermal fibroblast cells are cultured alone or in the presence of lung epithelial cells, usually primary human lung epithelial cells, with two or more factors selected from: TNF, IL-1, IFNγ, EGF, bFGF+HSPG (heparan sulfate proteoglycan), and PDGFbb. In some embodiments three or more factors are present, four or more, five or more, or all six factors are present.
Human neonatal dermal fibroblasts (HDFn) or adult lung fibroblasts (HDFp) or fibroblasts from tissues such as liver, heart, or kidney are used. Cells are cultured at 3×10^4 cells/ml in DMEM/F12 (50/50) from Cellgro, supplemented with LSGS kit (from Cascade Biologics); fetal bovine serum, 2% v/v, hydrocortisone 100 nM, human epidermal growth factor 10 ng/ml, basic fibroblast growth factor 3 ng/ml and heparin 10 μg/ml, and penicillin/streptomycin amphotericin B solution (PSA), until confluency. Medium is replaced with DMEM/F12 with only penicillin/streptomycin amphotericin B solution (PSA), then 24 hours later, the following are applied:
After another 24, 48 or 72 hours incubation (37° C., 5% CO2) the cultures are evaluated for the following parameters: ICAM, VCAM, CD40, CD90, IP-10, MCP-1, Collagen I, Mig, m-CSF, TIMP-2, PAI-I, IL-8, Collagen III, HLA-DR, MMP-1, MMP-9, proliferation, TGF-b1, eotaxin-3, decorin, alpha-SMC, MLCK, I-TAC, EGFR, TIMP-1.
Cell culture. […] Human dermal fibroblasts were pooled from 3 donors, cultured according to standard methods, and plated confluent 24 h before stimulation. Cell culture medium for all systems containing fibroblasts and keratinocytes contained low hydrocortisone. […] Concentrations/amounts of agents added to confluent microtiter plates to build each system: cytokines (IL-1β, 1 ng/ml; TNF-α, 5 ng/ml; IFN-γ, 20 ng/ml; IL-4, 5 ng/ml), activators (SAg, 20 ng/ml; histamine, 10 μM; zymosan, 10 μg/ml; or LPS, 2 ng/ml), growth factors (TGF-β, 5 ng/ml; EGF, bFGF, and PDGF-BB, 10 ng/ml), and PBMC (7.5×10^4 cells/well) or macrophages (3.5×10^4 cells/well).

Fibroblasts [5] = experiment: BioMAP HDF3CT system (IL-1β + TNF-α + IFN-γ + TGF-β), scoring of readout parameters; format: cell-based, human
Text: as §1, §2, §3, §4, §5

human primary cells = experiment: Total score for desired parameter modulation over the BioMAP systems of Table 1; format: cell-based; details: penalties not applied
Text: as §1
The relative importance of each parameter may be weighted by the screener to select those parameters of greatest interest for a particular application.
Compounds were first selected to inhibit PAI-1 in the HDFT as an indication of TBF-b signaling inhibition without being cytotoxic. […] Blank spots in Table 3 were where parameter was not assayed. Penalties were not applied for this scoring.
BioMAP Systems are designed to model complex human disease biology in a practical in vitro format. This is achieved by stimulating human primary cells (single cell type or defined mixtures of cell types) such that multiple disease-relevant signaling pathways are simultaneously active. The choice of cell types and stimulations is guided by the knowledge of disease biology and mechanisms. Incorporating appropriate cell types and stimulating signaling pathways relevant to disease states allows association of biological activities detected in BioMAP Systems with disease processes. Drug effects are then recorded by measuring biologically meaningful protein readouts that provide coverage of biological space of interest (e.g., inflammation, tissue remodeling) and allow discrimination between different drug classes tested.
as §2, §3
Readout Parameter Measurements. The levels of readout parameters were measured by ELISA.

Compound: C=C1CC[C@H](O)C/C1=C/C=C1\CCC[C@]2(C)[C@@H]([C@H](C)/C=C/[C@H](C)C(C)C)CC[C@@H]12 [Calciferol]
- uPA score [1]: 1
- PAI-1 score [1]: 0
- EGFR score [1]: 0
- TF score [2]: 0
- HLA-DR score [3]: 0
- MMP-1 score [3]: 1
- uPA score [3]: 0
- PAI-1 score [3]: 0
- EGFR score [3]: 0
- PAI-1 score (Fibroblasts [4]): 1
- MMP-1 score (Fibroblasts [4]): 0
- EGFR score (Fibroblasts [4]): 0
- MMP-1 score (Fibroblasts [5]): 0
- Score (Fraction correctly modulated parameters out of 45-58 total) (human primary cells): 0.29

Compound: COC(=O)Nc1nc2ccc(SC(C)C)cc2[nH]1 [Methiazole]
- uPA score [1]: 0
- PAI-1 score [1]: 1
- EGFR score [1]: 0
- TF score [2]: 1
- HLA-DR score [3]: 0
- MMP-1 score [3]: 0
- uPA score [3]: 0
- PAI-1 score [3]: 1
- EGFR score [3]: 0
- PAI-1 score (Fibroblasts [4]): 1
- MMP-1 score (Fibroblasts [4]): 0
- EGFR score (Fibroblasts [4]): 0
- MMP-1 score (Fibroblasts [5]): 0
- Score (Fraction correctly modulated parameters out of 45-58 total) (human primary cells): 0.55
